Data published in patent US20250018019A1, “TREATMENT OF INTERFERON DRIVEN INFLAMMATION” (The Provost, Fellows, Foundation Scholars and the other …, priority 2023, published 2025).

Tests used:
Format in all cases: cell-based, mouse
BMDMs [1] = assay: Stable isotope-assisted tracing (15N2-glutamine) in BMDMs; details: 15N2-glutamine tracing, LPS-treated BMDMs, LPS 4 h
Protocol: All compounds used DMSO as a vehicle except for 4-hydroxy tamoxifen (EtOH), NAC (PBS), and AOAA for tracing experiments (Media). LPS was used at a concentration of 100 ng/ml for indicated timepoints (2, 3, 4, 6, 8, 24, 48 h). FHIN1 (10 or 20 μM), MMF (50 or 100 μM), DMF (25 μM), AOAA (5 mM), oligomycin (10 μM), CCCP (50 μM) NAC (1 mM), and IMT1 (10 μM) pre-treatments were performed for 3 h prior the addition of LPS. Cells were treated with valinomycin (10 nM) 15 mins before LPS stimulation. Anti-CD210 or IgG control (10 μg/ml) antibodies were added to cells 1 h prior to LPS stimulation. Recombinant mouse IL-10 protein (100 ng/ml) was added to cells at the same time as LPS. Cells were treated with IFN-B1 (220 ng/ml) for 3 h. Cells were treated with C-178 (1 μM) 1 h prior to LPS stimulation or transfection with 2′3′-cGAMP (1.5 μg/ml) for 4 hrs to achieve cGAS-STING activation. […]
BMDMs (3 independent mice) were plated at 0.5×10^6 cells/well in 12-well plates in technical triplicate per condition, treated as indicated in glutamine-free DMEM supplemented with U-^13C-glutamine or ^15N2-glutamine, respectively. For ^13C- and ^15N-tracing analysis, the theoretical masses of ^13C and ^15N isotopes were calculated and added to a library of predicted isotopes in Tracefinder 5.0. […]

BMDMs [2] = assay: ELISA of cytokine release from BMDMs; details: BMDMs pre-treated 3 h, LPS 4 h
Protocol: (§1) All compounds used DMSO as a vehicle except for 4-hydroxy tamoxifen (EtOH), NAC (PBS), and AOAA for tracing experiments (Media). LPS was used at a concentration of 100 ng/ml for indicated timepoints (2, 3, 4, 6, 8, 24, 48 h). FHIN1 (10 or 20 μM), MMF (50 or 100 μM), DMF (25 μM), AOAA (5 mM), oligomycin (10 μM), CCCP (50 μM) NAC (1 mM), and IMT1 (10 μM) pre-treatments were performed for 3 h prior the addition of LPS. Cells were treated with valinomycin (10 nM) 15 mins before LPS stimulation. Anti-CD210 or IgG control (10 μg/ml) antibodies were added to cells 1 h prior to LPS stimulation. Recombinant mouse IL-10 protein (100 ng/ml) was added to cells at the same time as LPS. Cells were treated with IFN-B1 (220 ng/ml) for 3 h. Cells were treated with C-178 (1 μM) 1 h prior to LPS stimulation or transfection with 2′3′-cGAMP (1.5 μg/ml) for 4 hrs to achieve cGAS-STING activation. Cells were treated with ODN 2088 (1 μM) for 1 hr prior to LPS stimulation or transfection with CPG ODN 1826 (1.5 μg/ml) to achieve TLR9 activation. 3 different timepoints of 4-hydroxy tamoxifen (TAM) (600 nM or 2 μM) or EtOH treatment were performed-these are specified in the individual figure legends. For ‘48 h’ treatments EtOH/TAM was added on day 5 of 6 during the BMDM differentiation protocol. On day 6 they were plated with EtOH/TAM (left overnight) and treated the following day. For ‘72 h’ treatments EtOH/TAM was added on day […] of 6 during the BMDM differentiation protocol. On day 6 they were plated with EtOH/TAM (left overnight) and treated the following day. For ‘96 h’ treatments EtOH/TAM was added on day […] of 6 during the BMDM differentiation protocol. On day 6 they were plated with EtOH/TAM and treated 2 days later.
Pre-designed silencer select siRNAs for Cgas (s103166), Tmem173 (s91058), Tlr3 (s100579), Tlr9 (s96268), As/(s99640), Tlr7 (s100720), Ddx58 (s106376), Ifih1 (s89787), Nrf2 (s70522), Atf4 (s62689) and negative control (4390843) were ordered from Thermo Fisher. siRNA sequences are given in Table S2. Cells were transfected with 50 nM siRNA using 5 μl lipofectamine RNAiMAX according to manufacturer's instructions (Thermo Fisher). Cells were transfected in medium without serum and antibiotics which was replaced with complete medium 8 hours later. Cells were subsequently left for at least a further 12 hours prior to treatment.
BMDMs were plated in the presence or absence of ultrapure ethidium bromide (100 ng/ml) and incubated for a further 6 days prior to treatment. Depletion of mtDNA was determined by genomic DNA isolation followed by qPCR using primers specific for areas of mitochondrial DNA (D-loop) and areas of mtDNA that are not inserted into nuclear DNA (Non-NUMT).
DuoSet ELISA kits for IL-1β, TNFα, IL-6, IL-10, and GDF15 were purchased from R&D Systems and were carried out according to the manufacturer's instructions with appropriately diluted cell supernatants added to each plate in duplicate or triplicate. IFN-β was determined using DuoSet ELISA kit from R&D Systems or Abcam (ab252363). Quantikine ELISA kit for IFN-β (R&D Systems) was used for determination of IFN-β concentration in serum samples and from human cells, and these were also carried out according to the manufacturer's instructions. Absorbance at 450 nm was quantified using a FLUOstar Optima plate reader. Corrected absorbance values were calculated by subtracting the background absorbance, and cytokine concentrations were subsequently obtained by extrapolation from a standard curve plotted on GraphPad Prism 9.2.0.

BMDMs [3] = assay: LC-MS steady-state metabolomics / fumarate levels in BMDMs; details: BMDMs, AOAA 5 mM pre-treatment, LPS 4 h
Protocol: as §1
BMDMs (3 independent mice) were plated at 0.5×10^6 cells/well in 12-well plates in technical triplicate per condition, treated as indicated, snap frozen and stored at −80° C. For metabolomics on cytosolic fraction, BMDMs were plated at 10×10^6 cells/10 cm dish and rapid fractionation was performed as previously reported^16. Metabolite extraction solution (MES) (methanol/acetonitrile/water, 50:30:20 v/v/v) was added (0.5 mL per 1×10^6 cells) and samples were incubated for 15 min on dry ice. The resulting suspension was transferred to ice-cold microcentrifuge tubes. Samples were agitated for 20 min at 4° C. in a thermomixer and then incubated at −20° C. for 1 h. Samples were centrifuged at maximum speed for 10 min at 4° C. The supernatant was transferred into a new tube and centrifuged again at maximum speed for 10 min at 4° C. The supernatant was transferred to autosampler vials and stored at −80° C. prior to analysis by LC-MS.
HILIC chromatographic separation of metabolites was achieved using a Millipore Sequant ZIC-PHILIC analytical column (5 μm, 2.1×150 mm) equipped with a 2.1×20 mm guard column (both […] particle size) with a binary solvent system. Solvent A was 20 mM ammonium carbonate, 0.05% ammonium hydroxide; Solvent B was acetonitrile. The column oven and autosampler tray were held at 40° C. and 4° C., respectively. The chromatographic gradient was run at a flow rate of 0.200 mL/min as follows: 0-2 min: 80% B; 2-17 min: linear gradient from 80% B to 20% B; 17-17.1 min: linear gradient from 20% B to 80% B; 17.1-22.5 min: hold at 80% B. Samples were randomized and analysed with LC-MS in a blinded manner and the injection volume was 5 μl. Pooled samples were generated from an equal mixture of all individual samples and analysed interspersed at regular intervals within sample sequence as a quality control. Metabolites were measured with a Thermo Scientific Q Exactive Hybrid Quadrupole-Orbitrap Mass spectrometer (HRMS) coupled to a Dionex Ultimate 3000 UHPLC or with Vanquish Horizon UHPLC coupled to an Orbitrap Exploris 240 mass spectrometer (both Thermo Fisher Scientific) via a heated electrospray ionization source. […]

NOCC(=O)O [AOAA, aminooxyacetic acid]
contribution of glutamine nitrogen to aspartate, asparagine, arginine and citrulline (BMDMs [1]): completely prevented
IL-10 release (BMDMs [2]): modestly increased
TNF-α release (BMDMs [2]): reduced
aspartate, asparagine, argininosuccinate levels following LPS stimulation (BMDMs [3]): reduced
fumarate levels following LPS stimulation (BMDMs [3]): reduced
